# Experiments:
# [1] = tested on: P. aeruginosa strain PAO1; experiment: Static biofilm inhibition assay (crystal violet), PAO1; type: cell-based, Pseudomonas aeruginosa; details: for IC50: inhibition of biofilm formation, crystal violet, 24 hours
# Experimental: Each compound was assayed for the ability to inhibit the formation of P. aeruginosa biofilms. […] We employed a standard crystal violet reporter assay to assess for the formation of biofilms. Briefly, P. aeruginosa strain PAO1 was allowed to form biofilms in a multi-well plate in the absence or presence of our compounds. Planktonic (or free growing) bacteria were then removed, wells washed vigorously, and crystal violet added. Crystal violet stains the remaining bacteria which, following ethanol solubilization, can be quantitated by spectrophotometry (A540).
# (§1) An overnight culture of the bacterial strain being screened against was subcultured at an OD600 of 0.1 into the media used (listed below with strain) and then pipetted into test tubes along with a predetermined concentration of our compound of interest. Test tubes were then poured into tilted Petri dishes and 100 μL of media, strain and compound were then transferred into 96-well PVC microtiter plates. These microtiter plates were then covered, wrapped in Saran™ Wrap polyethylene film (S.C. Johnson, Racine, Wis.) and allowed to incubate at 37° C. for 24 hours. After that time, the medium was discarded and the plates were thoroughly washed with water. The remaining biofilm that was formed during incubation was stained with 100 μL of a 0.1% crystal violet solution and allowed to incubate at room temperature for 30 minutes. After 30 minutes, the crystal violet was discarded and washed thoroughly again with water. The remaining crystal violet that had stained the biofilm in the inside walls of the 96-well PVC plates was solubilized with 200 μL of 95% ethanol. The quantification of biofilm formation was accomplished by transferring 125 μL of the ethanol solution into a polystyrene microtiter dish, which was read by spectrophotometry (A540). After the background has been subtracted from each row, a percent inhibition can be calculated by dividing the amount of crystal violet in wells that contained compound by the amount of crystal violet in wells that contained bacteria only. Each concentration reported during the course of this study was repeated two to five times with each of those biofilm inhibition assays being done in 6 replicates each.
# (§2) An overnight culture of the wild type strain was subcultured at an OD600 of 0.10 into LBNS along with a predetermined concentration of the small molecule to be tested for biofilm inhibition. Samples were then aliquoted (100 μL) into the wells of a 96-well PVC microtiter plate. The microtiter dishes were covered and sealed before incubation under stationary conditions at 37° C. for 24 hours. After that time, the medium was discarded and the plates thoroughly washed with water. The wells were then inoculated with a 0.1% aqueous solution of crystal violet (100 μL) and allowed to stand at ambient temperature for 30 minutes. Following another thorough washing with water the remaining stain was solubilized with 200 μL of 95% ethanol. Biofilm inhibition was quantitated by measuring the OD540 for each well by transferring 125 μL of the ethanol solution into a fresh polystyrene microtiter dish for analysis.
# (§3) To examine each compound's ability to inhibit the formation of Pseudomonas aeruginosa biofilms, PAO1 and PA14 were employed as the target bacterial strains using a crystal violet reporter assay. G. A. O'Toole, R. Kolter, Mol. Microbiol. 1998, 28, 449. All compounds were initially screened at 500 μM for anti-biofilm activity.
# An overnight culture of the wild type strain was subcultured at an OD600 of 0.10 into LBNS along with a predetermined concentration of the small molecule to be tested for biofilm inhibition. Samples were then aliquoted (100 μL) into the wells of a 96-well PVC microtiter plate. The microtiter dishes were covered and sealed before incubation under stationary conditions at 37° C. for 24 hours, After that time, the medium was discarded and the plates thoroughly washed with water. […]
# P. aeruginosa PA14 = experiment: Static biofilm inhibition assay (crystal violet), PA14; type: cell-based, Pseudomonas aeruginosa; details: for IC50: PA14, inhibition of biofilm formation, crystal violet, 24 hours
# Experimental: as §1, §2, §3
# as §2, with “for 24 hours, After that” for “for 24 hours. After that”, “violet (100 pt) and allowed” for “violet (100 μL) and allowed”
# pre-formed PAO1 biofilms = experiment: Static biofilm dispersion assay, PAO1; type: cell-based; details: Pseudomonas aeruginosa, 24-hour pre-formed biofilm, 24 hours treatment
# Experimental: (§4) One aspect associated with small molecule modulation of biofilm development is the ability to disperse a pre-formed biofilm. There have only been a limited number of examples in the literature of molecules that disperse bacterial biofilms. Banin et al., Appl. Environ. Microbiol., 2006, 72, 2064. L. M. Junker and J. Clardy, Antimicrob, Agents Ch., 2007, 51, 3582. Boles et al., Mol. Microbiol., 2005, 57, 1210. TAGE was assayed for its ability to disperse pre-formed PAO1 and PA14 biofilms. Each bacterial strain was allowed to form biofilms in a microtiter well for 24 hours in the absence of compound. […] After 24 hours, all the wells were washed vigorously to remove media and planktonic bacteria, and then were stained with crystal violet to quantify the amount of remaining biofilm Representative PAO1 results are depicted in FIG. 6.
# (§5) An overnight culture of either PAO1 or PA14 was subcultured at an OD600 of 0.5 into LBNS and aliquoted (100 μL) into the wells of a 96-well PVC microtiter plate. […] The quantification of remaining biofilm was accomplished by transferring 125 μL of the ethanol solution into a polystyrene microtiter dish, which was read by spectrophotometry (A540). Percent dispersion was calculated in the same manner as percent biofilm inhibition described previously in this experimental section. […]
# [2] = tested on: planktonic P. aeruginosa PAO1; experiment: Planktonic growth (growth curves, colony counts), PAO1; type: cell-based, Pseudomonas aeruginosa; details: growth curves and/or colony counts, presence vs absence of compound, at IC50 or as stated
# Text: To answer the question of whether the compounds were antibiotics or true inhibitors of biofilm formation, we tested the ability of both compounds to inhibit growth of planktonic P. aeruginosa. Growth was quantitated by measuring optical density at 600 nm. […]
# [3] = tested on: planktonic P. aeruginosa PA14; experiment: Planktonic growth (growth curves, colony counts), PA14; type: cell-based, Pseudomonas aeruginosa; details: growth curves and/or colony counts, presence vs absence of compound, at IC50 or as stated
# pre-formed PA14 biofilms = experiment: Static biofilm dispersion assay, PA14; type: cell-based; details: Pseudomonas aeruginosa, 24-hour pre-formed biofilm, 24 hours treatment
# Experimental: as §4, §5
# [4] = tested on: PDO300, mucoid strain of P. aeruginosa; experiment: Static biofilm inhibition assay (crystal violet), PDO300; type: cell-based; details: Pseudomonas aeruginosa, 24 h, read-out: IC50 against PDO300
# Experimental: PDO300 was employed to assay if TAGE would inhibit the formation of mucoid biofilms. PDO300 is a well-characterized mucoid strain of P. aeruginosa that is genotypically identical to PAO1 except for the mucA mutation that converts the bacterium to the mucoid phenotype (Mathee et al., Microbiology, 1999, 145, 1349), PDO300 biofilms were allowed to develop in a 96-well plate in the absence or presence of TAGE. After 24 hours, the media and planktonic bacteria were removed, the wells were washed vigorously, and crystal violet was added. Crystal violet stains the bacterial biofilm that forms on the inside wall of the well at the air/liquid interface, which, following ethanol solubilization, can be quantitated by spectrophotometry (A540) (O'Toole et al., Mol. Microbiol., 1998, 30, 295).
# An overnight culture of the bacterial strain being screened against was subcultured at an OD600 of 0.1 into the media used (listed below with strain) and then pipetted into test tubes along with a predetermined concentration of our compound of interest. Test tubes were then poured into tilted Petri dishes and 100 μL of media, strain and compound were then transferred into 96-well PVC microtiter plates. […] The quantification of biofilm formation was accomplished by transferring 125 μL of the ethanol solution into a polystyrene microtiter dish, which was read by spectrophotometry (A540). […]
# [5] = tested on: existing biofilms of P. aeruginosa; experiment: Biofilm dispersion, P. aeruginosa (Example 6); type: cell-based, Pseudomonas aeruginosa; details: range of concentrations, FIG. 21
# Experimental: (§6) From a clinical perspective, the ability to disperse an established biofilm can be an important consideration, because a physician is typically faced with treating an established or chronic biofilm infection. DHS was assessed for its ability to disperse existing biofilms of P. aeruginosa, A. baumannii, and B. bronchiseptica. Each bacterial strain was allowed to form biofilms for 24 hours in the absence of compound. At the end of 24 hours, the media and planktonic bacteria were removed and the remaining biofilm was treated either with media alone or media containing DHS.
# A. baumannii biofilms = experiment: Biofilm dispersion, A. baumannii; type: cell-based, Acinetobacter baumannii; details: range of concentrations, FIG. 21
# Experimental: Finally, each of the TAGE derivatives were assayed for their ability to disperse pre-formed biofilms. […] While not wishing to be bound by any particular theory, it is hypothesized that the failure of these derivatives to effectively disperse biofilms, in contrast to TAGE, might be due to impeded diffusion through the biofilm matrix.
# as §6
# [6] = tested on: existing biofilms of B. bronchiseptica; experiment: Biofilm dispersion, B. bronchiseptica; type: cell-based, Bordetella bronchiseptica; details: range of concentrations, FIG. 21
# Experimental: as §6
# [7] = tested on: B. bronchiseptica biofilms (strain Rb50); experiment: Static biofilm inhibition assay (crystal violet), RB50; type: cell-based; details: Bordetella bronchiseptica, inhibition of biofilm formation, 24 hours
# Experimental: as §1, with “The remaining crystal violet that had stained the biofilm in the inside walls of the 96-well PVC plates was solubilized with 200 μL of 95% ethanol.” left out, “Each concentration reported during the course of this study was repeated two to five times with each of those biofilm inhibition assays being done in 6 replicates each.” left out
# A. baumannii = experiment: Planktonic growth (growth curves, colony counts), A. baumannii; type: cell-based, Acinetobacter baumannii; details: growth curves and/or colony counts
# Experimental: Screens of the three compounds were performed against A. baumannii and B. bronchiseptica.
# [8] = tested on: Acinetobacter Baumannii (ATCC 19606); experiment: Static biofilm inhibition assay (crystal violet), A. baumannii; type: cell-based; details: ATCC19606, inhibition of biofilm formation, 24 hours, read-out: IC50 value for inhibition against A. baumannii
# Experimental: as §1, with “The remaining crystal violet that had stained the biofilm in the inside walls of the 96-well PVC plates was solubilized with 200 μL of 95% ethanol.” left out, “Each concentration reported during the course of this study was repeated two to five times with each of those biofilm inhibition assays being done in 6 replicates each.” left out
# PDO300 = experiment: Planktonic growth (growth curves, colony counts), PDO300; type: cell-based, Pseudomonas aeruginosa; details: growth curves and/or colony counts
# [9] = listed as DHS 23, hydrochloride
# [10] = listed as DHS (7), hydrochloride
smiles,measurement,setting,value
"CCCCCCCCCCCCNC(=O)CCCc1c[nH]c(N)n1.Cl [Compound 12, 4-(2-amino-1H-imidazol-4-yl)-N-dodecyl-butyramide hydrochloride]",IC50,"[1]; Pseudomonas aeruginosa, PAO1",2.84 µM
same,IC50,P. aeruginosa PA14; Pseudomonas aeruginosa,2.26 µM
same,EC50,pre-formed PAO1 biofilms,32.8 ± 4.7 µM
same,microbicidal effect on PAO1 planktonic growth (in words),[2],remained unchanged
same,microbicidal effect on PA14 planktonic growth (in words),[3],remained unchanged
same,EC50,pre-formed PA14 biofilms,21.3 ± 3.9 µM
"Cl.Cn1c(C(=O)NCCCc2c[nH]c(N)n2)cc(Br)c1Br [Compound 23, 4,5-dibromo-1-methyl-pyrrole-2-carboxylic acid [3-(2-amino-1H-imidazol-4-yl)-propyl]-amide hydrochloride]",IC50,[4],115 µM
same,% Biofilm Inhibition at 500 μM vs PAO1,"[1]; 500 μM, hydrochloride",>95%
same,inhibition at 500 µM,"[1]; Pseudomonas aeruginosa, PAO1",> 95%
same,IC50,"[1]; Pseudomonas aeruginosa, PAO1",51 ± 9 µM
same,fold more active than both TAGE and CAGE,[1]; from IC50 values against PAO1 and PA14,approximately 2 fold
same,dispersion of existing P. aeruginosa biofilms (in words),[5],able to successfully disperse
same,dispersion of existing A. baumannii biofilms (in words),A. baumannii biofilms,able to successfully disperse
same,% Biofilm Inhibition at 500 μM vs PA14,"P. aeruginosa PA14; 500 μM, hydrochloride",>95%
same,inhibition at 500 µM,"P. aeruginosa PA14; Pseudomonas aeruginosa, PA14, 24 h",> 95%
same,IC50,P. aeruginosa PA14; Pseudomonas aeruginosa,111 ± 8 µM
same,dispersion of existing B. bronchiseptica biofilms (in words),[6],able to successfully disperse
same,IC50,[7],238 µM
same,microbicidal effect on PAO1 planktonic growth (in words),[2]; [9],no reduction
same,microbicidal effect on PAO1 planktonic growth (in words),[2]; [10],not due to a bactericidal effect
same,microbicidal effect on A. baumannii planktonic growth (in words),A. baumannii,no microbicidal effects
same,IC50,[8],110 µM
same,microbicidal effect on PA14 planktonic growth (in words),[3]; [9],no reduction
same,microbicidal effect on PA14 planktonic growth (in words),[3]; [10],not due to a bactericidal effect
same,bactericidal activity against PDO300 (in words),PDO300,lacked significant bactericidal activity

# Source: patent US9084423B2, “Inhibition of bacterial biofilms with imidazole derivatives” (North Carolina State University, priority 2007, dated 2015)
